For test [1], the target named is Pim1 kinase (Homo sapiens, UniProt P11309). Put plainly: Pim1 ATP depletion assay.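 Note: Luciferase-luciferin luminescence readout of residual ATP after PIM1 transfers phosphate to a peptide substrate, 40 µM ATP added, reaction run to roughly half ATP consumption.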 It counts as biochemical. The following applies: Pim1 ATP depletion assay; read-out: IC50 (μM) PIM1.
For test [2], the target named is Pim3 kinase (Homo sapiens, UniProt Q86V86). Nature of the test: Pim3 ATP depletion assay. Format: biochemical. The following applies: read-out: IC50 (μM) PIM3.
The subject of test [3] is PC3 cells. Put plainly: Cell proliferation assay (CellTiter-Glo), PC3. It counts as cell-based. The following applies: Homo sapiens, PC-3. How it is done:
HEL 92.1.7 cells (ATTC No. TIB-180, an erythroleukemia line derived from malignant peripheral blood), MV4-11 cells (ATCC No. CRL-9591, a human acute monocytic leukemia line) and PC3 cells (ATCC No. CRL-1435, a human prostatic adenocarcinoma line) were cultured in RPMI1640 supplemented with 10% FBS, sodium pyruvate and antibiotics. Cells were plated in the same medium at a density of 1000 cells per well into 96 well tissue culture plates, with outside wells vacant, on the day of assay.
Test compounds supplied in DMSO were diluted into DMSO at 500 times the desired final concentrations before dilution into culture media to 2 times final concentrations. Equal volumes of 2× compounds were added to the cells in 96 well plates and incubated at 37° C. for 3 days.
After 3 days plates were equilibrated to room temperature and equal volume of CellTiter-Glow Reagent (Promega) was added to the culture wells. The plates were agitated briefly and luminescent signal was measured with luminometer. The percent inhibition of the signal seen in cells treated with DMSO alone vs. cells treated with control compound was calculated and used to determine EC50 values (i.e., the concentration of a test compound that is required to obtain 50% of the maximum effect in the cells) for tested compounds, as shown in Example 763.

Test [4] deals with Pim2 kinase (Homo sapiens, UniProt Q9P1W9). Put plainly: Pim2 ATP depletion assay.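 Note: Luciferase-based luminescent readout of ATP remaining after PIM2 phosphorylates a BAD peptide, final 5 nM enzyme, 4 µM ATP, 10 µM peptide, 2.5% DMSO, run to roughly half ATP consumption.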 It counts as biochemical. To be noted: read-out: IC50 (μM) PIM2.
Sequence of Pim2 kinase (Q9P1W9 whole entry): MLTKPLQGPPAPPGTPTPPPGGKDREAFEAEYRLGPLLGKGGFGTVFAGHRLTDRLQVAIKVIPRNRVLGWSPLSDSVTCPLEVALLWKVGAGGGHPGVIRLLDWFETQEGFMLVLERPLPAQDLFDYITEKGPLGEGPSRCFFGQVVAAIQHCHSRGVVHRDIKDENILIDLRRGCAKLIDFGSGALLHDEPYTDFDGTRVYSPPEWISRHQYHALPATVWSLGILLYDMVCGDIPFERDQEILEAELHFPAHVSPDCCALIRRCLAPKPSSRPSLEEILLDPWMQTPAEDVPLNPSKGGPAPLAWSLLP

A value given as a limit tells only on which side of the number the result lay.

Sequence of Pim1 kinase (P11309 whole entry): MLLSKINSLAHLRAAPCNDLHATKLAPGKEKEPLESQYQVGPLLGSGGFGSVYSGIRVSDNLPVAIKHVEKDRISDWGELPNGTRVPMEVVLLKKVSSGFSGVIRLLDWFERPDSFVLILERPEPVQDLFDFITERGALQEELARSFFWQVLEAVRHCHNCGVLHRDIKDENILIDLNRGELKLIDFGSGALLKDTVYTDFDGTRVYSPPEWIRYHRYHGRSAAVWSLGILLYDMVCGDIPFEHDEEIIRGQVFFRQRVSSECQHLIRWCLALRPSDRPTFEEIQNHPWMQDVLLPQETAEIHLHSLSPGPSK

Take `Nc1nccnc1C(=O)Nc1cc(-c2ccn[nH]2)ccc1N1CCC(N)CC1` [Example 207, 3-amino-N-[2-(4-aminopiperidin-1-yl)-5-(1H-pyrazol-5-yl)phenyl]pyrazine-2-carbox-amide]: the figures for the concentration for half-maximal inhibition (IC50) in test [1], in test [2] and in test [4] were below 1 µM, below 1 µM and 10 to 25 µM, respectively. For the same molecule, the EC50 in test [3] was in the range of 5 to 10 µM.

For the molecule `Nc1nccnc1C(=O)Nc1cc(F)ccc1N1CCC(N)CC1` [Example 208, 3-amino-N-[2-(4-aminopiperidin-1-yl)-5-fluorophenyl]pyrazine-2-carboxamide], the IC50 in test [1] is below 1 µM; in test [2], below 1 µM; in test [4] it was 1 to 10 µM. The molecule further had an EC50 in test [3] below 1 µM.

Turning to `Nc1nccnc1C(=O)Nc1c(F)cccc1N1CCC(N)CC1` [Example 209, 3-amino-N-[2-(4-aminopiperidin-1-yl)-6-fluorophenyl]pyrazine-2-carboxamide], the IC50 in test [1] was 10 to 25 µM; in test [2], above 25 µM; in test [4] it was above 25 µM. In addition, in test [3], the EC50 was in the range of 1 to 5 µM.

`Nc1nccnc1C(=O)Nc1ccc(F)cc1N1CCC(N)CC1` [Example 210, 3-amino-N-[2-(4-aminopiperidin-1-yl)-4-fluorophenyl]pyrazine-2-carboxamide]: the IC50 was below 1 µM in test [1], below 1 µM in test [2] and 1 to 10 µM in test [4]. For the same molecule, in test [3], the EC50 is below 1 µM.

For the molecule `COc1ccc(F)c(-c2cnc(N)c(C(=O)Nc3ccccc3N3CCC(N)CC3)n2)c1` [Example 393, 3-amino-6-(2-fluoro-5-methoxy-phenyl)-pyrazine-2-carboxylic acid [2-(4-amino-piperidin-1-yl)-phenyl]-amide], the IC50 in test [1], in test [2] and in test [4] was below 1 µM throughout. The same molecule gave a 50% effective concentration (EC50) in test [3] of 1 to 5 µM.

On to `COc1cc(-c2cnc(N)c(C(=O)Nc3ccccc3N3CCNCC3)n2)cc(OC)c1OC` [Example 395, 3-amino-6-(3,4,5-trimethoxy-phenyl)-pyrazine-2-carboxylic acid (2-piperazin-1-yl-phenyl)-amide], for which the results for the IC50 in test [1], in test [2] and in test [4] were below 1 µM, 1 to 10 µM and above 25 µM, respectively. The EC50 in test [3] lay within 1 to 5 µM.

For `COc1ccc(F)c(-c2cnc(N)c(C(=O)Nc3ccccc3N3CCNCC3)n2)c1` [Example 396, 3-amino-6-(2-fluoro-5-methoxy-phenyl)-pyrazine-2-carboxylic acid (2-piperazin-1-yl-phenyl)-amide], the IC50 in test [1] was below 1 µM; in test [2], below 1 µM; in test [4], 1 to 10 µM. This molecule came in with an EC50 in test [3] of 1 to 5 µM.

In the case of `Nc1ncc(-c2ccccc2)nc1C(=O)Nc1ccccc1N1CCC(N)CC1` [Example 397, 3-amino-6-phenyl-pyrazine-2-carboxylic acid [2-(4-amino-piperidin-1-yl)-phenyl]-amide], the IC50 in test [1] and in test [2] was below 1 µM in each case. Also, the EC50 in test [3] was below 1 µM.

Source of the values: US20140249135A1, “PIM KINASE INHIBITORS AND METHODS OF THEIR USE” (NOVARTIS AG, priority 2007, published 2014).
